{"source": "patent US8802664B2", "about": "(Bioproject, priority 2010, dated 2014)"}
{"target": "T1, human H4 receptor (Homo sapiens, UniProt Q9H3N8)", "T1 construct": "expressed in transfected cells", "T1 sequence (Q9H3N8 whole entry)": "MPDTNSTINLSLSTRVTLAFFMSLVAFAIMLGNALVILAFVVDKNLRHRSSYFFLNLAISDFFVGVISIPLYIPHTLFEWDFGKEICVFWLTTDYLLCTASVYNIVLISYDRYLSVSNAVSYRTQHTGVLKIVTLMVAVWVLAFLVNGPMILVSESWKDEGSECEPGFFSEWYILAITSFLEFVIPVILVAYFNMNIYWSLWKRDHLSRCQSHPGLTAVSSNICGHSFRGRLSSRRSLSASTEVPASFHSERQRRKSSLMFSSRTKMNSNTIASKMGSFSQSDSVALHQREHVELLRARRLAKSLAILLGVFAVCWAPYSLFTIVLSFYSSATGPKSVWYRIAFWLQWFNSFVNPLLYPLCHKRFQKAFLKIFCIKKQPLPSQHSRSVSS", "test": "[3H]Histamine binding on membranes of CHO cells stably expressing human H4 receptor", "conditions": "not given", "procedure,_shortened": "(§1)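 CHO-hH4 membranes 20 μg/well; buffer 50 mM Tris/HCl, 0.5 mM EDTA, pH 7.4; NSB: 10 μM JNJ 7777120 (BP1.2404); GF/B filtration (PEI-presoaked), 3 ice-cold washes; scintillation counting.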", "units": {"Ki or IC50 activity class": "nM"}}
{"smiles": "CN1CCC(OC(c2cccc(N3CC(N(C)C)C3)c2)c2nc3ccccc3s2)CC1", "note": "(centres unmarked) [Example 450]", "Ki or IC50 activity class": "< 1000"}
{"smiles": "CN1CCC(NC(c2cccc(F)c2)c2nc3ccccc3[nH]2)CC1", "note": "(centres unmarked) [Example 74, [(1H-benzimidazol-2-yl)(3-fluorophenyl)methyl](1-methylpiperidin-4-yl)amine]", "Ki or IC50 activity class": "< 300"}
{"smiles": "CN1CCC(OC(c2cccc(SCCNC(=N)N)c2)c2nc3ccccc3[nH]2)CC1", "note": "(centres unmarked) [Example 278, N-(2-{3-[(1H-benzimidazol-2-yl)(1-methylpiperidin-4-yloxy)methyl]phenylsulfanyl}ethyl)guanidine]", "Ki or IC50 activity class": "< 30"}
{"smiles": "CN1CCC(OC(c2nc3ccccc3[nH]2)c2cc(C(F)(F)F)ccc2F)CC1", "note": "(centres unmarked) [Example 498]", "Ki or IC50 activity class": "< 300"}
{"smiles": "CN1CCC(OC(c2cccc(OCCCCCNCC(=O)OC(C)(C)C)c2)c2nc3ccccc3s2)CC1", "note": "(centres unmarked) [Example 375, (5-{3-[benzothiazol-2-yl(1-methylpiperidin-4-yloxy)methyl]phenoxy}pentylamino)acetic acid tert-butyl ester]", "Ki or IC50 activity class": "< 1000"}
{"smiles": "CN1CCC(OC(c2cccc(OC3CCNCC3)c2)c2nc3ccccc3s2)CC1", "note": "(centres unmarked) [Example 415, 2-{(1-methylpiperidin-4-yloxy)[3-(piperidin-4-yloxy)phenyl]methyl}benzothiazole]", "Ki or IC50 activity class": "< 300"}
{"smiles": "CN1CCC(OC(c2cccc(-c3ccccc3)c2)c2nc3ccccc3[nH]2)CC1", "note": "(centres unmarked) [Example 81, 2-[biphenyl-3-yl(1-methylpiperidin-4-yloxy)methyl]-1H-benzimidazole]", "Ki or IC50 activity class": "< 300"}
{"smiles": "CN1CCC(OC(c2nc3ccccc3[nH]2)c2cc(I)ccc2F)CC1", "note": "(centres unmarked) [Example 425, 2-[(2-fluoro-5-iodo-phenyl)(1-methylpiperidin-4-yloxy)methyl]-1H-benzimidazole]", "Ki or IC50 activity class": "< 30"}
{"smiles": "CCCOc1cccc(C(NC2CCN(C)CC2)c2nc3ccccc3s2)c1", "note": "(single isomer, unassigned) [Example 57, [benzothiazol-2-yl(3-propoxyphenyl)methyl](1-methylpiperidin-4-yl)amine]", "Ki or IC50 activity class": "< 30"}
{"smiles": "CN1CCC(OC(c2cccc(CCCN)c2)c2nc3ccccc3[nH]2)CC1", "note": "(centres unmarked) [Example 303, 3-{3-[(1H-benzimidazol-2-yl)(1-methylpiperidin-4-yloxy)methyl]phenyl}propylamine]", "Ki or IC50 activity class": "< 300"}
{"smiles": "CCOC(=O)NCCCCC#Cc1cccc(C(OC2CCN(C)CC2)c2nc3ccccc3n2C)c1", "note": "(centres unmarked) [Example 549, ethyl (6-{3-[(1-methyl-1H-benzimidazol-2-yl)(1-methylpiperidin-4-yloxy)methyl]phenyl}hex-5-ynyl)carbamate]", "Ki or IC50 activity class": "< 1000"}
{"smiles": "CN1CCC(OC(c2cccc(-c3cccnc3)c2)c2nc3ccccc3s2)CC1", "note": "(centres unmarked) [Example 63, 2-[(1-methylpiperidin-4-yloxy)(3-pyridin-3-ylphenyl)methyl]benzothiazole]", "Ki or IC50 activity class": "< 300"}
{"smiles": "CN1CCC(OC(c2cccc(CCCNC(=N)N)c2)c2nc3ccccc3[nH]2)CC1", "note": "(centres unmarked) [Example 320, N-(3-{3-[(1H-benzimidazol-2-yl)(1-methylpiperidin-4-yloxy)methyl]phenyl}propyl)guanidine]", "Ki or IC50 activity class": "< 30"}
{"smiles": "COc1cccc(C(OC2CCN(C)CC2)c2nc3ccccc3s2)c1", "note": "(centres unmarked) [Example 11, 2-[(3-methoxyphenyl)(1-methylpiperidin-4-yloxy)methyl]benzothiazole]", "Ki or IC50 activity class": "< 30"}
{"smiles": "CN1CCC(OC(c2cccc(C#CCCCCNC(=N)N)c2)c2nc3ccccc3s2)CC1", "note": "(centres unmarked) [Example 342, N-(6-{3-[benzothiazol-2-yl(1-methylpiperidin-4-yloxy)methyl]phenyl}hex-5-ynyl)guanidine]", "Ki or IC50 activity class": "< 300"}
{"smiles": "CN1CCC(OC(c2cccc(CCCCCNC(=N)N)c2)c2nc3ccccc3[nH]2)CC1", "note": "(centres unmarked) [Example 397, N-(5-{3-[(1H-benzimidazol-2-yl)(1-methylpiperidin-4-yloxy)methyl]phenyl}pentyl)guanidine]", "Ki or IC50 activity class": "< 300"}
{"smiles": "CN1CCC(OC(c2nc3cccc(F)c3[nH]2)c2cc(OC(F)(F)F)ccc2F)CC1", "note": "(centres unmarked) [Example 529]", "Ki or IC50 activity class": "< 300"}
{"smiles": "CN1CCC(OC(c2cccc(OC3CCNC3)c2)c2nc3ccccc3s2)CC1", "note": "(centres unmarked) [Example 382, 2-{(1-methylpiperidin-4-yloxy)[3-(pyrrolidin-3-yloxy)phenyl]methyl}benzothiazole]", "Ki or IC50 activity class": "< 30"}
{"smiles": "CN1CCC(OC(c2cccc(OCCCCn3nccn3)c2)c2nc3ccccc3s2)CC1", "note": "(centres unmarked) [Example 315, 2-{(1-methylpiperidin-4-yloxy)[3-(4-[1,2,3]triazol-2-yl-butoxy)phenyl]methyl}benzothiazole]", "Ki or IC50 activity class": "< 1000"}
{"smiles": "CN1CCC(OC(c2cccc(C(F)(F)F)c2)c2nc3ccccc3s2)CC1", "note": "(centres unmarked) [Example 31, 2-[(1-methylpiperidin-4-yloxy)(3-trifluoromethylphenyl)methyl]benzothiazole]", "Ki or IC50 activity class": "< 30"}
{"smiles": "CN1CCC(OC(c2cccc(OCCF)c2)c2nc3ccccc3[nH]2)CC1", "note": "(centres unmarked) [Example 476]", "Ki or IC50 activity class": "< 30"}
{"smiles": "CN1CCC(OC(c2cccc(OCCCN3CCN(C(=O)OC(C)(C)C)CC3)c2)c2nc3ccccc3[nH]2)CC1", "note": "(centres unmarked) [Example 360, 4-(3-{3-[(1H-benzimidazol-2-yl)(1-methylpiperidin-4-yloxy)methyl]phenoxy}propyl)piperazine-1-carboxylic acid tert-butyl ester]", "Ki or IC50 activity class": "< 1000"}
{"smiles": "Cc1ccc(C(OC2CCN(C)CC2)c2nc3ccccc3[nH]2)c(Cl)c1", "note": "(centres unmarked) [Example 213, 2-[(2-chloro-4-methylphenyl)(1-methylpiperidin-4-yloxy)methyl]-1H-benzimidazole]", "Ki or IC50 activity class": "< 300"}
{"smiles": "COC(=O)CSc1cccc(C(OC2CCN(C)CC2)c2nc3ccccc3[nH]2)c1", "note": "(centres unmarked) [Example 154, {3-[(1H-benzimidazol-2-yl)(1-methylpiperidin-4-yloxy)methyl]phenylsulfanyl}acetic acid methyl ester]", "Ki or IC50 activity class": "< 300"}
{"smiles": "CN1CCC(OC(c2cccc(SCC3NC(N)=NC3=O)c2)c2nc3ccccc3[nH]2)CC1", "note": "(centres unmarked) [Example 479, 2-amino-5-{3-[(1H-benzimidazol-2-yl)(1-methylpiperidin-4-yloxy)methyl]phenylsulfanylmethyl}-1,5-dihydroimidazol-4-one]", "Ki or IC50 activity class": "< 30"}
{"smiles": "CN1CCC(OC(c2cccc(C#CCNC(=N)N)c2)c2nc3ccccc3[nH]2)CC1", "note": "(centres unmarked) [Example 418, N-(3-{3-[(1H-benzimidazol-2-yl)(1-methylpiperidin-4-yloxy)methyl]phenyl}prop-2-ynyl)guanidine]", "Ki or IC50 activity class": "< 30"}
{"smiles": "CN1CCC(OC(c2cccc(C#CCCCNC(=N)NC(=O)OC(C)(C)C)c2)c2nc3ccccc3[nH]2)CC1", "note": "(centres unmarked) [Example 357, N-tert-butoxycarbonyl-N′-(5-{3-[(1H-benzimidazol-2-yl)(1-methylpiperidin-4-yloxy)methyl]phenyl}pent-4-ynyl)guanidine]", "Ki or IC50 activity class": "< 300"}
{"smiles": "CN1CCC(OC(c2cccc(C3=CCNCC3)c2)c2nc3ccccc3[nH]2)CC1", "note": "(centres unmarked) [Example 338, 2-{(1-methylpiperidin-4-yloxy)[3-(1,2,3,6-tetrahydro-pyridin-4-yl)phenyl]methyl}-1H-benzimidazole]", "Ki or IC50 activity class": "< 300"}
{"smiles": "CN1CCC(OC(c2cccc(-c3ccccc3F)c2)c2nc3ccccc3s2)CC1", "note": "(centres unmarked) [Example 137, 2-[(2′-fluorobiphenyl-3-yl)(1-methylpiperidin-4-yloxy)methyl]benzothiazole]", "Ki or IC50 activity class": "< 300"}
{"smiles": "CN1CCC(OC(c2cccc(OCCCCN3CCOCC3)c2)c2nc3ccccc3[nH]2)CC1", "note": "(centres unmarked) [Example 332, 2-{(1-methylpiperidin-4-yloxy)[3-(4-morpholin-4-yl-butoxy)phenyl]methyl}-1H-benzimidazole]", "Ki or IC50 activity class": "< 1000"}
{"smiles": "CN1CCC(OC(c2cccc(OC(F)(F)F)c2)c2nc3ccccc3[nH]2)CC1", "note": "(centres unmarked) [Example 280, 2-[(1-methylpiperidin-4-yloxy)(3-trifluoromethoxy-phenyl)methyl]-1H-benzimidazole]", "Ki or IC50 activity class": "< 300"}
{"smiles": "CN1CCC(OC(c2cccc(-n3cccn3)c2)c2nc3ccccc3s2)CC1", "note": "(centres unmarked) [Example 147, 2-[(1-methylpiperidin-4-yloxy)(3-pyrazol-1-ylphenyl)methyl]benzothiazole]", "Ki or IC50 activity class": "< 300"}
{"smiles": "CN1CCC(OC(c2cccc(OCCCF)c2)c2nc3ccccc3[nH]2)CC1", "note": "(centres unmarked) [Example 475]", "Ki or IC50 activity class": "< 300"}
{"smiles": "CN1CCC(OC(c2cccc(-c3ccc(Cl)c(Cl)c3)c2)c2nc3ccccc3s2)CC1", "note": "(centres unmarked) [Example 133, 2-[(3′,4′-dichlorobiphenyl-3-yl)(1-methylpiperidin-4-yloxy)methyl]benzothiazole]", "Ki or IC50 activity class": "< 300"}
{"smiles": "CN1CCC(NC(c2cccc(OCc3ccc(F)cc3)c2)c2nc3ccccc3[nH]2)CC1", "note": "(centres unmarked) [Example 103, {(1H-benzimidazol-2-yl)[3-(4-fluorobenzyloxy)phenyl]methyl}(1-methylpiperidin-4-yl)amine]", "Ki or IC50 activity class": "< 300"}
{"smiles": "CN1CCC(OC(c2cccc(CCCCNC(=N)N)c2)c2nc3ccccc3s2)CC1", "note": "(centres unmarked) [Example 374, N-(4-{3-[benzothiazol-2-yl(1-methylpiperidin-4-yloxy)methyl]phenyl}butyl)guanidine]", "Ki or IC50 activity class": "< 30"}
{"smiles": "COC(=O)CC1(CSc2cccc(C(OC3CCN(C)CC3)c3nc4ccccc4s3)c2)CC1", "note": "(centres unmarked) [Example 239, (1-{3-[benzothiazol-2-yl(1-methylpiperidin-4-yloxy)methyl]phenylsulfanylmethyl}-cyclopropyl)acetic acid methyl ester]", "Ki or IC50 activity class": "< 1000"}
{"smiles": "CN1CCC(OC(c2cccc(CCCCCNC(=N)N)c2)c2nc3ccccc3s2)CC1", "note": "(centres unmarked) [Example 365, N-(5-{3-[benzothiazol-2-yl(1-methylpiperidin-4-yloxy)methyl]phenyl}pentyl)guanidine]", "Ki or IC50 activity class": "< 300"}
{"smiles": "COc1ccc(-c2cccc(C(NC3CCN(C)CC3)c3nc4ccccc4s3)c2)cc1", "note": "(centres unmarked) [Example 211, [benzothiazol-2-yl(4′-methoxybiphenyl-3-yl)methyl](1-methylpiperidin-4-yl)amine]", "Ki or IC50 activity class": "< 300"}
{"smiles": "COCCn1c(C(OC2CCN(C)CC2)c2cccc(C#CCCCCN)c2)nc2ccccc21", "note": "(centres unmarked) [Example 501]", "Ki or IC50 activity class": "< 300"}
{"target": "T1, human H4 receptor", "test": "[3H]Histamine binding on membranes of CHO cells stably expressing human H4 receptor", "conditions": "human H4 receptor; evaluated in the GTPγ[35S] assay or in the [3H]histamine binding assay (not stated which per compound); Ki or IC50 class", "procedure,_shortened": "as §1", "units": {"Ki or IC50 activity class": "nM"}}
{"smiles": "CN1CCC(OC(c2cccc(I)c2)c2nc3ccccc3s2)CC1", "note": "(single isomer, unassigned) [Example 118, 2-[(3-iodophenyl)(1-methylpiperidin-4-yloxy)methyl]benzothiazole]", "Ki or IC50 activity class": "< 30"}
